Data: ChEMBL document CHEMBL1150504, “Pharmacological evaluation of combined PGI2 agonists/thromboxane synthase inhibitors. I” (Bioorg Med Chem Lett, 1995)

What was measured:
Homo sapiens [1] = species: Homo sapiens; experiment: PGI-2 agonistic activity by measuring inhibition of 4 uM ADP-induced human platelet aggregation; type: functional
Thromboxane-A synthase [2] = molecular target: T1, Thromboxane-A synthase (Homo sapiens, UniProt P24557); experiment: Inhibitory activity against Thromboxane A2 synthase in human platelet microsome; Inactive
T1 sequence (P24557 whole entry): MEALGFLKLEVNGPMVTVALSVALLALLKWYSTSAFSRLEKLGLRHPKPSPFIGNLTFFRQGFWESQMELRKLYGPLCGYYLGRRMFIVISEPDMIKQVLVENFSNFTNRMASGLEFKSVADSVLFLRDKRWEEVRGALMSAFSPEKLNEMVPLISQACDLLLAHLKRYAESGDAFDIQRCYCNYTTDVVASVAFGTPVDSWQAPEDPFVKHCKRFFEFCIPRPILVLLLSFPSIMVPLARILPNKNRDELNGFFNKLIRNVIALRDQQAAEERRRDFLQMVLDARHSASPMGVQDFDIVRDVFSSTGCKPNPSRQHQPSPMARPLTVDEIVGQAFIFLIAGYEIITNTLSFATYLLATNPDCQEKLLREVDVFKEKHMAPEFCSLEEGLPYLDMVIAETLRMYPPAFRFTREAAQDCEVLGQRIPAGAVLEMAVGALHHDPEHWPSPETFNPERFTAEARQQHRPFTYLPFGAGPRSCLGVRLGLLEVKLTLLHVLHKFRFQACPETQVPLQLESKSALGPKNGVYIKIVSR

Thromboxane-A synthase [3] = molecular target: T1, Thromboxane-A synthase; experiment: Inhibitory activity against Thromboxane A2 synthase in human platelet microsome
Thromboxane-A synthase [4] = molecular target: T1, Thromboxane-A synthase; experiment: Inhibitory activity against Thromboxane A2 synthase in human platelet microsome; inactive
Homo sapiens [5] = species: Homo sapiens; experiment: PGI-2 agonistic activity by measuring inhibition of 4 uM ADP-induced human platelet aggregation; Inactive; type: functional

| IC50 (Homo sapiens [1]) | SMILES | also measured |
| --- | --- | --- |
| 230 nM | C/C(CC1CCc2c(cccc2OCC(=O)O)C1)=N\OC(c1ccccc1)c1ccccc1 (stereo not drawn) | IC50 (Thromboxane-A synthase [2]): Not Active |
| – | O=C(O)COc1cccc2c1CCCC2CCC(=O)NN(c1ccccc1)c1ccccc1 (stereo not drawn) | IC50 (Thromboxane-A synthase [3]): Not Active |
| – | O=C(O)COc1cccc2c1CCCC2CCON=C(c1ccccc1)c1ccccc1 (stereo not drawn) | IC50 (Thromboxane-A synthase [2]): Not Active |
| 440 nM | O=C(O)COc1cccc2c1CCCC2CCC(=O)NN(c1ccccc1)c1cccnc1 (stereo not drawn) | – |
| 570 nM | C/C(CC1CCc2c(cccc2OCC(=O)O)C1)=N\OC(c1ccccc1)c1ccccn1 (stereo not drawn) | – |
| 130 nM | O=C(O)COc1cccc2c1CCC(Cn1cc(C(c3ccccc3)c3ccccc3)cn1)C2 (stereo not drawn) | IC50 (Thromboxane-A synthase [3]): Not Active |
| 150 nM | O=C(O)COc1cccc2c1CCC(Cn1cc(C(c3ccccc3)c3cccnc3)cn1)C2 (stereo not drawn) | – |
| 320 nM | CCC/C(CC1CCc2c(cccc2OCC(=O)O)C1)=N\OC(c1ccccc1)c1cccnc1 (stereo not drawn) | – |
| 480 nM | C/C(CC1CCc2c(cccc2OCC(=O)O)C1)=N\OC(c1ccccc1)c1ccncc1 (stereo not drawn) | – |
| 1400 nM | C/C(CC1CCc2c(cccc2OCC(=O)O)C1)=N\OC(c1ccccc1)c1cccnc1 (stereo not drawn) | – |
| 240 nM | O=C(O)COc1cccc2c1CCCC2CCO/N=C(\c1ccccc1)c1cccnc1 (stereo not drawn) | – |
| – | CCC/C(CC1CCc2c(cccc2OCC(=O)O)C1)=N\OC(c1ccccc1)c1ccccc1 (stereo not drawn) [AP-227] | IC50 (Thromboxane-A synthase [3]): Not Active |
| 1.4 nM | CC#CCC(C)[C@H](O)/C=C/[C@@H]1[C@H]2C/C(=C/CCCC(=O)O)C[C@H]2C[C@H]1O (stereo partly drawn) [ILOPROST] | IC50 (Thromboxane-A synthase [4]): Not Active |
| – | C/C(=C\c1ccc(Cc2cccnc2)cc1)C(=O)[O-].[Na+] [ONO-1581] | IC50 (Homo sapiens [5]): Not Active |
| – | O=C(O)/C=C/c1ccc(Cn2ccnc2)cc1 [OZAGREL] | IC50 (Homo sapiens [5]): Not Active |
